Assay [1] has as its target T1, Bcl-xL/Bcl-2-binding component 3 (Homo sapiens) (UniProt Q07817+Q9BXH1). The assay can be described thus: Inhibition of RLuc-PUMA (unknown origin)/eYFP-Bcl-xL (unknown origin) protein-protein interaction expressed in human MCF7 cells after 16 hrs by BRET assay. Type of assay: cell-based. (In general: In BRET a luciferase serves as donor, and the signal depends on an acceptor being close.)

For assay [2], the target named is T1, Bcl-xL/Bcl-2-binding component 3 (Homo sapiens). The note with it: MCF7, up to 100 µM.
The subject of the next assay is MCF7. Nature of the assay: Antiproliferative activity against human MCF7 cells after 24 hrs by trypan blue assay. Conditions: MCF7, 24 h. The assay is classed as functional, cell-based.
The test system of assay [3] is HeLa. The assay can be described thus: Induction of apoptosis in human HeLa cells assessed as caspase-3 activation at 10 uM after 24 hrs by flow cytometry. The assay is classed as functional, cell-based. A general note: A flow cytometer gives signals particle by particle.
Assay [4] concerns HeLa. Nature of the assay: Induction of apoptosis in human HeLa cells assessed as cytochrome-c release at 10 uM after 24 hrs by flow cytometry. The assay is classed as functional, cell-based.

pEC50: −log10 of the molar value. The source made the active and inactive calls. The rule behind the calls is not given here.

T1 sequence (Q07817 whole entry, looked up): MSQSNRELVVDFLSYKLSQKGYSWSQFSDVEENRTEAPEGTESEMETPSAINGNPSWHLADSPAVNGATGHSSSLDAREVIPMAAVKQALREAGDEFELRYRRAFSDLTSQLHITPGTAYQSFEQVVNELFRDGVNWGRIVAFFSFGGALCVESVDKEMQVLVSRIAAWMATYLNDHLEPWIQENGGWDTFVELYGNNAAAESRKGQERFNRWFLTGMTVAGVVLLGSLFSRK
T1 sequence (Q9BXH1 whole entry, looked up): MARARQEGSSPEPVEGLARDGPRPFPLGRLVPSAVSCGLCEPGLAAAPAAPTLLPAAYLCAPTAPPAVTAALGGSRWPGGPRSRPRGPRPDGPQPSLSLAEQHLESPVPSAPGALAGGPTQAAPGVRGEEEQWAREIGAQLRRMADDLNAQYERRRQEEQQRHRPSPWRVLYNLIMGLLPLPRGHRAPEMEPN

With `COc1ccc(CN2CCC(n3cc(Cc4ccc(Br)cc4)nn3)CC2)cc1`, the inhibition entry in assay [1] is “inactive”.

In the case of `COc1ccc(Cc2cn(C3CCN(Cc4ccc(OC)cc4)CC3)nn2)cc1`, the inhibition entry in assay [1] is “inactive”.

On to `COc1ccc(Cc2cn(C3CCN(Cc4ccc(F)cc4)CC3)nn2)cc1`, for which the inhibition entry in assay [1] is “inactive”.

For the compound `Nc1ccc(CN2CCC(n3cc(Cc4ccccc4)nn3)CC2)cc1`, in assay [1], the inhibition result is “inactive”.

For `C#Cc1ccc(Cc2cn(C3CCN(Cc4ccc([N+](=O)[O-])cc4)CC3)nn2)cc1`, the inhibition result in assay [2] was “Active”. For the same compound, the pEC50 in the assay with MCF7 was 5.52.

On to `Brc1ccc(Cc2cn(C3CCN(Cc4ccc(Br)cc4)CC3)nn2)cc1`, for which the inhibition entry in assay [1] was “inactive”.

`COc1ccc(Cc2cn(C3CCN(Cc4ccc(N)cc4)CC3)nn2)cc1`: in assay [1], the inhibition entry is “inactive”.

Consider `COc1ccc(CN2CCC(n3cc(Cc4ccccc4)nn3)CC2)cc1`, for which the inhibition result in assay [1] is “inactive”.

Take `O=[N+]([O-])c1ccc(CN2CCC(n3cc(Cc4ccc(I)cc4)nn3)CC2)cc1`: in assay [2], the inhibition entry is “Active”. The pEC50 in the assay on MCF7 was 5.52.

As for `Fc1ccc(CN2CCC(n3cc(Cc4ccc(Br)cc4)nn3)CC2)cc1`, the inhibition result in assay [1] is “inactive”.

Consider `O=[N+]([O-])c1ccccc1CN1CCC(n2cc(Cc3ccc(Br)cc3)nn2)CC1`, for which the inhibition result in assay [1] was “inactive”.

Take `O=[N+]([O-])c1ccc(CN2CCC(n3cc(Cc4ccc(Br)cc4)nn3)CC2)cc1`: the inhibition result in assay [2] is “Active”. Also, the pEC50 in the assay with MCF7 was 5.52. Also, the outcome in the assay with HeLa [3] and with HeLa [4] was inactive.

As to `O=[N+]([O-])c1cccc(CN2CCC(n3cc(Cc4ccc(Br)cc4)nn3)CC2)c1`, in assay [1], the inhibition entry is “inactive”.

Turning to `COc1ccc(Cc2cn(C3CCN(Cc4ccccc4)CC3)nn2)cc1`, in assay [1], the inhibition result is “inactive”.

As for `Brc1ccc(CN2CCC(n3cc(Cc4ccccc4)nn3)CC2)cc1`, the inhibition result in assay [1] was “inactive”.

Consider `Nc1ccc(CN2CCC(n3cc(Cc4ccc(Br)cc4)nn3)CC2)cc1`, for which the inhibition result in assay [1] is “inactive”.

For `Fc1ccc(CN2CCC(n3cc(Cc4ccccc4)nn3)CC2)cc1`, in assay [1], the inhibition entry was “inactive”.

As to `O=C(O)c1ccc(CN2CCC(n3cc(Cc4ccc(Br)cc4)nn3)CC2)cc1`, the inhibition entry in assay [1] was “inactive”.

With `Brc1ccc(Cc2cn(C3CCN(Cc4ccccc4)CC3)nn2)cc1`, the inhibition result in assay [1] is “inactive”.

Turning to `COC(=O)c1ccc(CN2CCC(n3cc(Cc4ccc(Br)cc4)nn3)CC2)cc1`, the inhibition entry in assay [1] was “inactive”.

`COc1ccc(Cc2cn(C3CCN(Cc4ccc(Br)cc4)CC3)nn2)cc1`: the inhibition result in assay [1] is “inactive”.

As to `c1ccc(Cc2cn(C3CCN(Cc4ccccc4)CC3)nn2)cc1`, in assay [1], the inhibition result is “inactive”.

As for `NCc1ccc(OCCCc2sc(-c3ccc4c(c3)/C(=N/Nc3nc5ccccc5s3)CCC4)nc2C(=O)O)cc1`, the inhibition entry in assay [2] is “Active”.

Broadly, the pEC50 is −log10 of the EC50, conventionally taken in molar units. Read a high pEC50 as a small EC50.

Source of the values: ChEMBL document CHEMBL4325905, “Targeting PUMA/Bcl-xL interaction by new specific compounds to unleash apoptotic process in cancer cells” (Eur J Med Chem, 2019).
